# Results taken from patent US8206732B2, “Pyrithione biocides enhanced by silver, copper, or zinc ions” (Arch Chemicals, Inc., priority 1999, dated 2012).
# “And” between values parts separate entries of the source, which are not always exact repeats. Equal entries are not always repeated.
# Legend:
# [1] = test system: E. coli 8739 free-living cells; assay: Viable free-living cells in bulk metalworking fluid (Example 5); format: cell-based, Escherichia coli; conditions: 100 PPM NaPT, 10 PPM Zn (II) or both, 4 days after treatment
# [2] = test system: E. coli 8739 biofilm; assay: Viable biofilm cells on discs in metalworking fluid (Example 5); format: cell-based, Escherichia coli; conditions: polycarbonate disc, 100 PPM NaPT, 10 PPM Zn (II) or both, 4 days after treatment
# [3] = test system: Fusarium sp.; assay: Checkerboard MIC test, pyrithiones with zinc salts; format: cell-based; conditions: pyrithione alone or pyrithione concentration in the inhibitory mixture; TSB, 28 C, 5 days
# Procedure: Mixtures of pyrithione and zinc or silver in various proportions were tested for relative efficacy by a modification of the procedure described by Dougherty, et al.
# Equal volumes of bacteria (10^6 cells/ml) or fungi (10^5 spores/ml) were added to each microtiter plate well. The plates were incubated at 28 C for 3 days (bacteria) or 5 days (fungi), and the minimum inhibitory concentration (MIC) of biocide was determined. The Fractional Inhibitory Concentration (FIC=concentration of biocide in an inhibitory mixture divided by the MIC of the pure biocide) was determined, and the FIC Index (sum of the two FIC's) was calculated. The type of interaction was categorized according to the magnitude of the Index: Synergistic (<1), Additive (1), or Antagonistic (>1).
# [4] = test system: Cephalosporium sp.; assay: MIC in Tryptic Soy Broth, microtiter (Example 1); format: cell-based; conditions: 28° C.
# [5] = test system: Fusarium sp. free-living cells; assay: Viable free-living cells in bulk metalworking fluid (Example 5); format: cell-based; conditions: 100 PPM NaPT, 10 PPM Zn (II) or both, 4 days after treatment
# Procedure: Experiments were conducted to investigate the efficacy of the composition of the present invention to inhibit the survival, growth, and proliferation of free-living and biofilm populations of bacteria and fungi in metalworking fluids. […] Metalworking fluids (MWF) employed included 5% soluble oil MWF, 5% semi-synthetic MWF, or 5% synthetic MWS. For testing against bacteria, metalworking fluids were supplemented with 2% (weight-to-weight ratio (w:w)) of 5 g/L yeast extract (Difco), Metalworking fluids were supplemented with 2% (weight-to-weight (w:w)) of Tryptic Soy Broth (Difco) for fungal tests.
# For each experiment, three ml of a 5% metalworking fluid was added to each of twelve, sterile, 16 mm×150 mm glass culture tubes. […] Fusarium sp. was added to the tubes to final concentrations of 10^5 spores/ml for the fungal tests. Tubes incubated for 3 days at 28° C. and 180 rpms.
# After the treatments additions were performed, the culture tubes resumed incubation at 28° C., 180 rpms for an additional 4 days.
# After 4 days, culture tubes were removed from the incubator and viable counts of organisms from the bulk MWF fluid and the biofilm were determined using serial dilution and drop plating techniques. For biofilms, polycarbonate discs were removed from tubes, dip-rinsed in three successive washes of de-ionized water to remove loosely attached cells, and transferred to 25 mm×150 mm culture tubes containing 10 ml of sterile, de-ionized water. Biofilms were removed from discs and resuspended by vortexing tubes for 30 seconds. Bacteria were plated on to R2A Agar plates and incubated at 37° C. Fungi were plated onto Malt Agar plates and incubated at 28° C. Mean colony forming units per ml (for bulk) and per square cm (cm^2) biofilm were determined for each experimental treatment.
# [6] = test system: Escherichia coli 10536; assay: Checkerboard MIC test, pyrithiones with silver salts; format: cell-based; conditions: NaPT alone or in the inhibitory mixture with silver salt; TSB pH 7.3, 35° C., 1 to 2 days
# [7] = test system: Escherichia coli ATCC 10536; assay: Zone of inhibition test (paper disc on TSA); format: cell-based; conditions: 6.5 mm discs; 0.135% pyrithione, 0.1% ZnCl2 or both; 28° C., 24 hr
# [8] = test system: Pseudomonas aeruginosa 9027; assay: Checkerboard MIC test, pyrithiones with silver salts; format: cell-based; conditions: NaPT alone or in the inhibitory mixture with silver salt; TSB pH 7.3, 35° C., 1 to 2 days
# [9] = test system: Pityrosporum ovale 1452; assay: as above; format: cell-based; conditions: NaPT alone or in the inhibitory mixture with silver salt; Ushijima Medium pH 5.5, 35° C., 1 to 2 days
# [10] = test system: Aspergillus niger ATCC 6275; assay: MIC in Tryptic Soy Broth, microtiter (Example 1); format: cell-based; conditions: 28° C.
# [11] = test system: Pseudomonas aeruginosa NCIMB 6749; assay: Checkerboard MIC test, pyrithiones with zinc salts; format: cell-based; conditions: pyrithione alone or pyrithione concentration in the inhibitory mixture; TSB, 28 C, 3 days
# [12] = test system: Fusarium sp. and Cephalosporium sp.; assay: Various mixtures of NaPT and Zn(II) against fungi in 5% metalworking fluid (Example 8, Table 10b); format: cell-based
# [13] = test system: Pseudomonas aeruginosa NCIMB 6749; assay: Zone of inhibition test (paper disc on TSA); format: cell-based; conditions: 6.5 mm discs; 0.135% pyrithione, 0.1% ZnCl2 or both; 28° C., 24 hr
# [14] = test system: Staphylococcus aureus ATCC 27217; assay: Checkerboard MIC test, pyrithiones with zinc salts; format: cell-based; conditions: pyrithione alone or pyrithione concentration in the inhibitory mixture; TSB, 28 C, 3 days
# [15] = test system: Candida albicans 10251; assay: Checkerboard MIC test, pyrithiones with silver salts; format: cell-based; conditions: NaPT alone or in the inhibitory mixture with silver salt; TSB pH 7.3, 35° C., 1 to 2 days
# [16] = test system: P. aeruginosa 9027 biofilm; assay: Viable biofilm cells on discs in metalworking fluid (Example 5); format: cell-based, Pseudomonas aeruginosa; conditions: 100 PPM NaPT; for viable biofilm cells: 5% soluble oil MWF, 2.5 PPM Zn(II) or both, 4 days
structure (smiles),measurement,setting,value
"[Na+].[O-][n+]1ccccc1[S-] [NaPT, sodium pyrithione]",viable free-living microorganisms,[1]; 5% solub. oil MWF,5.3 × 10^7 cells/ml
same,viable free-living microorganisms,[1]; 10% TSB,9.1 × 10^8 cells/ml
same,viable biofilm microorganisms,[2]; 5% solub. oil MWF,1.6 × 10^5 cells/cm^2
same,viable biofilm microorganisms,[2]; 10% TSB,1.4 × 10^6 cells/cm^2
same,MIC Pyrithione,[3],411 ppm
same,MIC NaPT (with 0.5 ppm Cu),"[4]; TSB with 0.5 ppm Cu (II), 5 days",16 ppm
same,MIC,"[4]; TSB, incubated 5 days, single agent (NaPT without Cu)",64 ppm
same,viable free-living microorganisms,[5]; 5% semisynth. MWF,2.8 × 10^5 cells/ml
same,viable free-living microorganisms,[5]; 5% solub. oil MWF,4.2 × 10^6 cells/ml
same,viable free-living microorganisms,[5]; 5% synthetic MWF,6.0 × 10^6 cells/ml
same,viable free-living microorganisms,[5]; 100% TSB,0 cells/ml
same,MIC NaPT,[6],16 ppm
same,Zone of Inhibition,[7],35 mm
same,MIC NaPT,[8],256 ppm
same,MIC NaPT,[9],4 ppm
same,MIC NaPT (with 0.5 ppm Cu),"[10]; TSB with 0.5 ppm Cu (II), 7-8 days",8 ppm
same,MIC,"[10]; TSB, incubated 7-8 days, single agent (NaPT without Cu)",128 ppm
same,MIC Pyrithione,[11],128 ppm
same,Fungi/ml,"[12]; semi-synthetic, NaPT 100 PPM, Day 1",1.1 × 10^4 Fungi/ml
same,Fungi/ml,"[12]; semi-synthetic, NaPT 100 PPM, Day 1, tube of the Day 1/Day 4 series",2.0 × 10^4 Fungi/ml
same,Fungi/ml,"[12]; semi-synthetic, NaPT 100 PPM, Day 2",1.3 × 10^3 Fungi/ml
same,Fungi/ml,"[12]; semi-synthetic, NaPT 100 PPM, Day 4",1.0 × 10^4 Fungi/ml
same,Fungi/ml,"[12]; semi-synthetic, NaPT 100 PPM, Day 7",0 Fungi/ml
same,Fungi/ml,"[12]; semi-synthetic, NaPT 300 PPM, Day 1",3.0 × 10^3 Fungi/ml
same,Fungi/ml,"[12]; semi-synthetic, NaPT 300 PPM, Day 2",570 Fungi/ml
same,Fungi/ml,"[12]; semi-synthetic, NaPT 300 PPM, Day 7",0 Fungi/ml
same,Fungi/ml,"[12]; semi-synthetic, NaPT 500 PPM, Day 1",9.0 × 10^3 Fungi/ml
same,Fungi/ml,"[12]; semi-synthetic, NaPT 500 PPM, Day 2",300 Fungi/ml
same,Fungi/ml,"[12]; semi-synthetic, NaPT 500 PPM, Day 7",0 Fungi/ml
same,Fungi/ml,"[12]; soluble oil, NaPT 100 PPM, Day 1",3.2 × 10^4 Fungi/ml
same,Fungi/ml,"[12]; soluble oil, NaPT 100 PPM, Day 1, tube of the Day 1/Day 4 series",3.6 × 10^4 Fungi/ml
same,Fungi/ml,"[12]; soluble oil, NaPT 100 PPM, Day 2",2.9 × 10^4 Fungi/ml
same,Fungi/ml,"[12]; soluble oil, NaPT 100 PPM, Day 4",2.9 × 10^4 Fungi/ml
same,Fungi/ml,"[12]; soluble oil, NaPT 100 PPM, Day 7",1.5 × 10^4 Fungi/ml
same,Fungi/ml,"[12]; soluble oil, NaPT 300 PPM, Day 1",1.7 × 10^4 Fungi/ml
same,Fungi/ml,"[12]; soluble oil, NaPT 300 PPM, Day 2",1.0 × 10^4 Fungi/ml
same,Fungi/ml,"[12]; soluble oil, NaPT 300 PPM, Day 7",560 Fungi/ml
same,Fungi/ml,"[12]; soluble oil, NaPT 500 PPM, Day 1",1.9 × 10^4 Fungi/ml
same,Fungi/ml,"[12]; soluble oil, NaPT 500 PPM, Day 2",2.8 × 10^4 Fungi/ml
same,Fungi/ml,"[12]; soluble oil, NaPT 500 PPM, Day 7",610 Fungi/ml
same,Fungi/ml,"[12]; synthetic, NaPT 100 PPM, Day 1",3.0 × 10^4 Fungi/ml
same,Fungi/ml,"[12]; synthetic, NaPT 100 PPM, Day 1, tube of the Day 1/Day 4 series",9.0 × 10^3 Fungi/ml
same,Fungi/ml,"[12]; synthetic, NaPT 100 PPM, Day 2",2.0 × 10^3 Fungi/ml
same,Fungi/ml,"[12]; synthetic, NaPT 100 PPM, Day 4",5.0 × 10^3 Fungi/ml
same,Fungi/ml,"[12]; synthetic, NaPT 100 PPM, Day 7",2.0 × 10^3 Fungi/ml
same,Fungi/ml,"[12]; synthetic, NaPT 300 PPM, Day 1",2.9 × 10^4 Fungi/ml
same,Fungi/ml,"[12]; synthetic, NaPT 300 PPM, Day 2",2.1 × 10^4 Fungi/ml
same,Fungi/ml,"[12]; synthetic, NaPT 300 PPM, Day 7",1.2 × 10^4 Fungi/ml
same,Fungi/ml,"[12]; synthetic, NaPT 500 PPM, Day 1",2.7 × 10^4 Fungi/ml
same,Fungi/ml,"[12]; synthetic, NaPT 500 PPM, Day 2",4.0 × 10^3 Fungi/ml
same,Fungi/ml,"[12]; synthetic, NaPT 500 PPM, Day 7",3.0 × 10^3 Fungi/ml
same,Zone of Inhibition,[13],8 mm
same,MIC Pyrithione,[14],4 ppm
same,MIC NaPT,[15],16 ppm
same,viable biofilm microorganisms,"[16]; 5% solub. oil MWF, polycarbonate disc, 10 PPM Zn (II) or both, 4 days after treatment",2.0 × 10^5 cells/cm^2 and 2.6 × 10^4 cells/cm^2
same,viable biofilm cells,[16]; Polycarbonate surface,2.8 × 10^4 cells/cm^2
same,viable biofilm cells,[16]; Rubber surface,5.3 × 10^2 cells/cm^2
same,viable biofilm cells,[16]; Steel surface,1.1 × 10^5 cells/cm^2
